Assay results published in patent US8629186B2, “Polymer micelles containing anthracyclines for the treatment of cancer” (Intezyne Technologies, Inc., priority 2009, dated 2014).
Where two headings read alike, the source gives them in different places.

Tests used:
786-0 cells = experiment: Cytotoxicity of daunorubicin micelles compared to free daunorubicin, 72 hours, Cell-Titer Glo; assay type: cell-based; details: Homo sapiens, 786-0, 72 h
Experimental: (§1) All cell lines were obtained from ATCC (Manassas, Va.). Media and supplements were obtained from Cell Gro (Manassas, Va.). HT-1080 cells were maintained in Eagle's Minimum Essential Medium supplemented with 10% FBS, 2 mM L-Glutamine, 1 mM sodium pyruvate, and 100 units/mL of penicillin and streptomycin. […] Cells were treated in triplicate. […] It should be noted that the IC50 values of the daunorubicin micelles are very similar to free daunorubicin.

HT-1080 cells = experiment: as above; assay type: cell-based; details: Homo sapiens, HT-1080, 72 h
Experimental: as §1

MG-63 cells = experiment: as above; assay type: cell-based; details: Homo sapiens, MG-63, 72 h
Experimental: as §1

SKOV-3 cells = experiment: as above; assay type: cell-based; details: Homo sapiens, SK-OV-3, 72 h
Experimental: as §1

[1] = Rat pharmacokinetics of daunorubicin micelles compared to free daunorubicin (Example 54); assay type: in vivo, Fisher rats; details: plasma
Experimental: The delivery vehicle for drug administration was isotonic saline.
This study was repeated, and the micelles were injected in the same rats seven days after the first injection. The pharmacokinetic results are shown in the table below, and graphed in FIG. 22.

[2] = Pharmacokinetics of crosslinked DOX loaded micelles in mice (Example 29); details: athymic nude mice, 15 mg/kg fast IV bolus tail vein, plasma doxorubicin
Experimental: Athymic nude mice were injected with 15 mg/kg of either doxorubicin, crosslinked dox loaded micelles (IT-143, Example 24), or dox loaded micelles (Example 23) by a fast IV bolus into the tail vein with an injection volume of 0.2-0.4 mL. The delivery vehicle for drug administration was isotonic saline. Mouse blood was collected from mice into K2-EDTA tubes by heart puncture at time points of 5 minutes, 15 minutes, 1 hour, and 4 hours. Plasma was isolated by centrifugation at 1000 RPM for 5 minutes, and 150 uL of extraction solution (ice cold methanol/100 ng/mL daunorubicin internal standard) was added to 50 uL of each plasma sample. Samples are then vortexed for 10 minutes, centrifuged at 13,000 RPM for 10 minutes, and 150 uL of the supernatant is transferred to HPLC vials for analysis.
(§2) Samples were analyzed on a Waters Alliance 2695 equiped with a 2475 fluorescence detector (Ex=470 nm; Em=580). A 5 μL sample injection was made onto a Waters 4 μm Nova Pak C18 (3.9×150 mm) at 30° C. with a flow rate of 0.750 mL per minute of 10 mM phosphate buffer (pH=1.4), methanol and acetonitrile (gradient from 70/10/20 to 40/10/50 for buffer/methanol/acetonitrile was made over eight minutes).

[3] = rat, in vivo, iv, 10 mg/kg
Experimental: The delivery vehicle for drug administration was isotonic saline. Rat blood was collected from the catheter into K2-EDTA tubes […] at time points of 1, minute, 5 minutes, 15 minutes, 1 hour, 4 hours, 8 hours and 24 hours. Plasma was isolated by centrifugation at 1000 RPM for 5 minutes, and 150 uL of extraction solution (ice cold methanol/100 ng/mL daunorubicin internal standard) was added to 50 uL of each plasma sample. Samples were then vortexed for 10 minutes, centrifuged at 13,000 RPM for 10 minutes, and 150 uL of the supernatant is transferred to HPLC vials for analysis.
as §2

Compound	IC50 (786-0 cells) [nM]	IC50 (HT-1080 cells) [nM]	IC50 (MG-63 cells) [nM]	IC50 (SKOV-3 cells) [nM]	Cmax ([1]; Fisher rats, 10 mg/kg fast IV bolus, Day 0 (first injection)) [ng/mL]	AUC ([1]; Fisher, rat, intravenous, 10 mg/kg, repeat experiment, same rats seven days after the first injection) [ng·h/mL]	Cmax ([1]; Fisher, rat, intravenous, 10 mg/kg, repeat experiment, same rats seven days after the first injection, read-out: Cmax) [ng/mL]	AUC [2] [ng·h/mL]	Cmax [2] [ng/mL]	T½ [2] [h]	AUC [3] [ng·h/mL]	Cmax [3] [ng/mL]
COc1cccc2c1C(=O)c1c(O)c3c(c(O)c1C2=O)C[C@@](O)(C(C)=O)C[C@@H]3O[C@H]1C[C@H](N)[C@H](O)[C@H](C)O1 [Daunorubicin, daunorubicin]	231 ± 11	546 ± 57	231 ± 11	200 ± 12	3290	3540	10600					
COc1cccc2c1C(=O)c1c(O)c3c(c(O)c1C2=O)C[C@@](O)(C(=O)CO)C[C@@H]3O[C@H]1C[C@H](N)[C@H](O)[C@H](C)O1 [Free Dox, doxorubicin]								200	210	5.4	2610	9760
